The values below come from ChEMBL document CHEMBL1201862, “PubChem BioAssay data set” (2004).

In general, EC50 refers to the concentration needed to bring the measured effect to its halfway point. As usually defined, the IC50 is the midpoint of a concentration-inhibition curve. What is called AC50 is the concentration giving half of the maximal activity seen.

Activity calls are given as the source filed them.

Assay [1] can be described thus: NIH-3T3 fibroblast cytotoxicity, dose response, cytotoxicity control, cell-based, fluorescence, Alamar Blue, secondary assay (AID 2327).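 Further: NIH-3T3 mouse fibroblasts cultured with fluconazole at 8 µg/mL.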 Type of assay: functional. A general note: The colour change of resazurin is a common sign of viable cells or microbes.
Assay [2] is described as follows: decrease of insulin promoter-GFP reporter – imaging, high-content screening, mouse beta cells (AID 1628). The conditions noted are these: MIN6. Type of assay: functional.
In assay [3] the test system is Streptococcus sp. 'group A'. Put plainly: Streptococcus pyogenes SK(-)GAS viability under kanamycin – luminescence, BacTiterGlo, confirmation, counter-screen for streptokinase expression inhibitor project, dose response (AID 1900). The class given is functional, organism-based. A general note: Counterscreens check selectivity or assay interference.
Assay [4] is described as follows: cells. The class given is functional, cell-based.
Assay [5] in a line: MIN6 cell viability loss – mouse insulinoma, cytotoxicity control, dose response (AID 2122).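 Further: confirmatory high-throughput counterscreen run to flag cytotoxic compounds.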 Type of assay: functional.
A short description of assay [6]: fluconazole-exposed Candida albicans growth modulators – fluorescence, retest, confirmation (AID 2467). The class given is functional, cell-based.
Assay [7] is described as follows: cells. Type of assay: functional, cell-based. This is another data set of the same source.
Assay [8] deals with T1, Serine/threonine-protein phosphatase (Candida dubliniensis (strain CD36 / CBS 7987 / NCPF 3949 / NRRLY-17841) (Yeast), UniProt B9W6M3).
T1 sequence (B9W6M3 whole entry): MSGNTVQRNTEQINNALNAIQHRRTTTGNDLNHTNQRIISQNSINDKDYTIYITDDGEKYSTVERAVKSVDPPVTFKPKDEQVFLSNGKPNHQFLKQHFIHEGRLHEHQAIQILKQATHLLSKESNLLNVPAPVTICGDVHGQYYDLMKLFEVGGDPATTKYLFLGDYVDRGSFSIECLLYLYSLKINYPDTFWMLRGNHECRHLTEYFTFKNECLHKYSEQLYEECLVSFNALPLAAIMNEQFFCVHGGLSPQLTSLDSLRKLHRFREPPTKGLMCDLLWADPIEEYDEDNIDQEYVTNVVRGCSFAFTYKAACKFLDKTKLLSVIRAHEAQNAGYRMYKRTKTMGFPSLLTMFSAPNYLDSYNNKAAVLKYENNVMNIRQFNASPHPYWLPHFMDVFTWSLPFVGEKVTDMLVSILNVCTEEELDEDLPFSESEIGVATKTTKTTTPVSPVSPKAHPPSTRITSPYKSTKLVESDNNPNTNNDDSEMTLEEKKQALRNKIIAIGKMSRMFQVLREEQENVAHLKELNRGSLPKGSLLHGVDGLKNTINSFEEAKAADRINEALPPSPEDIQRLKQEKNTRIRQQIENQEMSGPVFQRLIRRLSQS
Put plainly: blockers of CaCl2-induced CDRE-lacZ signaling – S. cerevisiae, luminescence, secondary, dose response (AID 2388).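 Further: yeast reporter cells carrying a calcineurin-responsive lacZ construct stimulated with calcium chloride; luminescent beta-galactosidase reporter signal in whole cells rather than isolated phosphatase activity; potency for inhibition where a drop in reporter signal means calcineurin blockade.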 The class given is functional, cell-based.

The next assay relates to Streptococcus. The assay is described as follows: GAS UMAA2166 growth inhibition – luminescence, BacTiterGlo, counter-screen for streptokinase expression inhibitor project, dose response (AID 1915).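 Further: potency for reduction of bacterial viability or growth.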 Type of assay: functional, organism-based.
The target in assay [9] is ATP-dependent molecular chaperone HSP82 (Candida albicans (strain WO-1) (Yeast), UniProt C4YTQ8). Put plainly: steroid-induced GRE reporter decrease in yeast – S. cerevisiae, luminescence, Hsp90 inhibitor project, dose response (AID 2400).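 Further: beta-galactosidase luminescence from glucocorticoid response element reporter as proxy for Hsp90 function; inhibitor potency where signal loss means Hsp90 inhibition.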 Type of assay: functional, cell-based.
Chain of ATP-dependent molecular chaperone HSP82 (C4YTQ8 whole entry): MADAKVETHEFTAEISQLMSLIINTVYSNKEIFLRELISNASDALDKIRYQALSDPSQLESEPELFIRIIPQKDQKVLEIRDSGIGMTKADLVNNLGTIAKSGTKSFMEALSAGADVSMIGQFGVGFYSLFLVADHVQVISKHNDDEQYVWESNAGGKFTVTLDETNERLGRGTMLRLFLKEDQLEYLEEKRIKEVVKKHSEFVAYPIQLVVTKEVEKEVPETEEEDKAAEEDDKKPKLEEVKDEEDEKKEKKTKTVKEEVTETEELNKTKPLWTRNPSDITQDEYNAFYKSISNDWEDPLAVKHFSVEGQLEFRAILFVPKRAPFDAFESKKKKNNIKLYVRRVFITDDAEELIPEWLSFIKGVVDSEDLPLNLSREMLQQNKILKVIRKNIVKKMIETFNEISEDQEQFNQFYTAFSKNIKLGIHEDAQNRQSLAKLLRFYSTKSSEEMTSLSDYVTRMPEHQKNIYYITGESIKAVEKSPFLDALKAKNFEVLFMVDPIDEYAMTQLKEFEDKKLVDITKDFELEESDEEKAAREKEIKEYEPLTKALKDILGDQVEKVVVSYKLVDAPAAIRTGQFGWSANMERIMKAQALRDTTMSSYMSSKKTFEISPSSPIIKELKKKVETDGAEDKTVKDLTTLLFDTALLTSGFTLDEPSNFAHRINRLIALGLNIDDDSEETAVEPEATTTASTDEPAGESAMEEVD
Assay [10] addresses T2, Endoribonuclease toxin MazF (Escherichia coli K-12, UniProt P0AE70).
T2 sequence (P0AE70 whole entry): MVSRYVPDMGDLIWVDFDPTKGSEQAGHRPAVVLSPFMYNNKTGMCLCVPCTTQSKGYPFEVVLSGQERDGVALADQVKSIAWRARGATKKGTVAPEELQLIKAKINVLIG
The assay is described as follows: activation of MazEF endoribonuclease cleavage – biochemical, fluorescence, single-stranded RNA substrate, uHTS hits, dose response (AID 588481). Type of assay: functional.

Assay [11] deals with T2, Endoribonuclease toxin MazF. Put plainly: substrate-only fluorescence increase artefacts – biochemical, single-stranded RNase substrate, counter-screen for MazEF activator project, dose response (AID 588502). Type of assay: functional.
In assay [12] the target is T3, Sentrin-specific protease 8 (Homo sapiens, UniProt Q96LD8).
T3 sequence (Q96LD8 whole entry): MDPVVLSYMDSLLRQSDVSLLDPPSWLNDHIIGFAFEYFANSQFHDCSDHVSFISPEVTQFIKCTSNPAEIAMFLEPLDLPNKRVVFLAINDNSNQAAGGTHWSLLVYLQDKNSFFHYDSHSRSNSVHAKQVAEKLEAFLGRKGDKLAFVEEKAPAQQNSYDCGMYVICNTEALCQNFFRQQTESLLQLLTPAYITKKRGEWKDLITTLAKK
The assay is described as follows: inhibition of human SENP8 cleavage activity – biochemical, luminescence, SAR follow-up (AID 504501). The class given is functional.

A further assay has as its target T4, Caspase-3 (Homo sapiens, UniProt P42574).
T4 sequence (P42574 whole entry): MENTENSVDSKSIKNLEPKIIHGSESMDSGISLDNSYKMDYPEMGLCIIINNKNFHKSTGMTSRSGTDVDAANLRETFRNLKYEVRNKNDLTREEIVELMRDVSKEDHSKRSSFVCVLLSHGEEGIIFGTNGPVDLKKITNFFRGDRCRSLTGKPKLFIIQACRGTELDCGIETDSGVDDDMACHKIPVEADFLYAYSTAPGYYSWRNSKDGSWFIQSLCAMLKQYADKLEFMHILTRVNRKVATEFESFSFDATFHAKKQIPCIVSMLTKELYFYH
Put plainly: SAR Analysis of small molecule inhibitors of Sentrin-specific proteases (SENPs) using a Caspase-3 Selectivity assay. [Related pubchem assays (depositor defined):AID2540, AID2599, AID434973, AID489001]. The class given is functional.

The target in assay [13] is T5, Sentrin-specific protease 6 (Homo sapiens, UniProt Q9GZR1).
T5 sequence (Q9GZR1 whole entry): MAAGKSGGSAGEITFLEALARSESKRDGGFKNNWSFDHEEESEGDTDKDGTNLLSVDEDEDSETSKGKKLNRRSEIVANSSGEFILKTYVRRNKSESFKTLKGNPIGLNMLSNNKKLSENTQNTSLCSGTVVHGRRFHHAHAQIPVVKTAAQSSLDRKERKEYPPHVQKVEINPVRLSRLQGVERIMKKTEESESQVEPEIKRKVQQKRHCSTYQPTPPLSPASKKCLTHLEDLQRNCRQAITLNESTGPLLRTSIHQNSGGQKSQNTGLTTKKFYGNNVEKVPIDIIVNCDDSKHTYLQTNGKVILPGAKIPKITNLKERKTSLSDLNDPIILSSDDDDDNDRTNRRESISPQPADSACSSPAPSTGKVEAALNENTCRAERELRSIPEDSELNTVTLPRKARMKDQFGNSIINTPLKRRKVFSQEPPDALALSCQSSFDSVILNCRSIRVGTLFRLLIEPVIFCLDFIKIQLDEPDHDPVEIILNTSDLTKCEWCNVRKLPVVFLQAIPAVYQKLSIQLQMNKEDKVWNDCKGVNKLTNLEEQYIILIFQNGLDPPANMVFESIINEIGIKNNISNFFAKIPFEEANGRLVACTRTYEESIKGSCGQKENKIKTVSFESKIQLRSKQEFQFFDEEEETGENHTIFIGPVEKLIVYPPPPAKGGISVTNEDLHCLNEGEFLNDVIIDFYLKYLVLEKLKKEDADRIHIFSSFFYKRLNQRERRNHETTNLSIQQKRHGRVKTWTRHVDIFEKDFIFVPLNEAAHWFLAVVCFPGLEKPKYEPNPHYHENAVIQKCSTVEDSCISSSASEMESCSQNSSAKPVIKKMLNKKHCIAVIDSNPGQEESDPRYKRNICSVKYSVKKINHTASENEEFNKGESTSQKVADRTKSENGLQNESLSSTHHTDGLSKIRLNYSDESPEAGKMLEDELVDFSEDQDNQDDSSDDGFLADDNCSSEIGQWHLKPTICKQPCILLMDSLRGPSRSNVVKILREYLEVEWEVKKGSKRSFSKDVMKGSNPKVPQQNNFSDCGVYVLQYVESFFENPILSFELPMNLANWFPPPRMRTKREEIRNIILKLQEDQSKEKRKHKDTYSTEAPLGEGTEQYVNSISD
Put plainly: SAR Analysis of small molecule inhibitors of Sentrin-specific protease 6 (SENP6) using a Luminescent assay. [Related pubchem assays (depositor defined):AID2582, AID2599]. Type of assay: functional.

For assay [14], the target named is T6, Sentrin-specific protease 7 (Homo sapiens, UniProt Q9BQF6).
T6 sequence (Q9BQF6 whole entry): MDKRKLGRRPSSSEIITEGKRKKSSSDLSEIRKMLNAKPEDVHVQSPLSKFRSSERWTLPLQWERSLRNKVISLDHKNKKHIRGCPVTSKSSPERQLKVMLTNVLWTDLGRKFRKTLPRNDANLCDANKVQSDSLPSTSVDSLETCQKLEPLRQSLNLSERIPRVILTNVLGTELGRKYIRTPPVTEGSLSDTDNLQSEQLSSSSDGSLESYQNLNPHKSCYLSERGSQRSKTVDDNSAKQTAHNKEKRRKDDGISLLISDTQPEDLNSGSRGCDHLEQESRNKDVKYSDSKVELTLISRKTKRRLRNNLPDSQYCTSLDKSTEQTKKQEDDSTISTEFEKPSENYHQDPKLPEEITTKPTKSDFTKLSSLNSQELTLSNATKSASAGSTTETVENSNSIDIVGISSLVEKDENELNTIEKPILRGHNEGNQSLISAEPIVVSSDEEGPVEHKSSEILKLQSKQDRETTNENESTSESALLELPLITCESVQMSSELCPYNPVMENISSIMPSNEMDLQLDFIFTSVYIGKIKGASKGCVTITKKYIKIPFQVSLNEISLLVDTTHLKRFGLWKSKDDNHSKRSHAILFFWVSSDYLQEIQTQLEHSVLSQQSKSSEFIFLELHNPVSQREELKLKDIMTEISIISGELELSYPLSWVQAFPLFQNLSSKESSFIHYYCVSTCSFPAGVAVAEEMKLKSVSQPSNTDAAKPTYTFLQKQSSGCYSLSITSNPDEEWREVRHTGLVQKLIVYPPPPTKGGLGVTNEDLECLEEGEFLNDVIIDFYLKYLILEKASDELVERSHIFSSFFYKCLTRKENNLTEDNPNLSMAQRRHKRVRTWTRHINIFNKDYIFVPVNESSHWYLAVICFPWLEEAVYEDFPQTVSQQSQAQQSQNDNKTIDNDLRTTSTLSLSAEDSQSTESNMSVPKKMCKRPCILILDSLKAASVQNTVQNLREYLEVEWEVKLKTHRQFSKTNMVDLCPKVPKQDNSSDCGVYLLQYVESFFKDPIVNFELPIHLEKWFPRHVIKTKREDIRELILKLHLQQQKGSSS
The assay is described as follows: inhibition of human SENP7 cleavage activity – biochemical, luminescence, SAR follow-up (AID 504497). The class given is functional.

Assay [15] can be described thus: luciferase reporter signal suppression in cells – H4 neuroglioma cells, luminescence, dose response (AID 1990). The class given is functional, cell-based. (In general: In a reporter assay the amount or activity of a reporter protein is the signal.)
A short description of assay [16]: Luminescence Cell-Based Dose Response HTS to Identify Inhibitors of 5'UTR Stem-Loop Driven Prion Protein mRNA Translation in H4 Neuroglioblastoma Cells. [Related pubchem assays: 1827 (Project Summary), 1813 (Primary HTS)]. Type of assay: functional.
A short description of assay [17]: alpha-synuclein stem-loop luciferase translation blockers – H4 neuroglioma cells, luminescence, confirmation (AID 1988). The class given is functional, cell-based.
The next assay concerns HEK293. Put plainly: EBV LMP1 TES2 canonical NF-kB signalling blockers – cell-based, HEK293, luciferase, cherry-pick, dose response (AID 588343). The class given is functional. The conditions noted are these: Homo sapiens.

As for `Oc1ccc(N=Nc2ccc3c(c2)OCCO3)c2cccnc12`, the EC50 was 13.7 µM (inconclusive) in [1]; 0.352 µM (active) in assay [3]; 5.17 µM (active) in the assay “cells [4]”; 1.24 µM (active) in [6]; 45.6 µM (active) in the assay “cells [7]”; > 180 µM (inactive) in assay [8]. Besides, the EC50 in the assay on Streptococcus is 1.15 µM (active); in assay [9], 12.8 µM (active). Besides, the half-maximal inhibitory concentration (IC50) in assay [2] is 2.15 µM (active); in assay [5] it was 1.37 µM (active).
In the case of `Cc1ccc(NC(=O)CNC(=O)c2ccc(Oc3ccccc3)cc2)nc1`, the EC50 is > 150 µM (inactive) in assay [1], 1.24 µM (active) in assay [6], > 180 µM (inactive) in [8] and 21.7 µM (active) in assay [9].
Regarding `CC(=O)C(=NNc1cc(C)ccc1O)C(C)=O`, the EC50 in assay [10] and in assay [11] was > 99 µM (inactive) in each case.
For `Oc1ccccc1-c1nc(-c2ccccc2)no1`, the half-maximal inhibitory concentration (IC50) in assay [12] was 1.86 µM (active); on Caspase-3 it was 1.09 µM (active); in assay [13], 1.75 µM (active); in assay [14], 1.55 µM (active).
For `CCCC(=O)Nc1ccc(-c2nc3cc(Cl)ccc3o2)cc1`, in that order: > 99 µM (inactive), > 99 µM (inactive), > 99 µM (inactive) and > 99 µM (inactive).
For the compound `O=C(N/N=C/c1cccs1)c1[nH]nc2c1CCCC2`, the concentration for a half-maximal effect (EC50) in assay [15] was 8.62 µM (inconclusive); in assay [16], 9.49 µM (active); in assay [17], 8.52 µM (active). The AC50 with HEK293 is 2.39 µM (active).
Take `O=C(COc1cccc(Cl)c1)N/N=C\c1cc2ccccc2nc1Cl`: the EC50 in [10] and in assay [11] was > 99 µM (inactive) in each case.
